Measured values taken from publication PMC9732821, “Neurotrophic Activity and Its Modulation by Zinc Ion of a Dimeric Peptide Mimicking the Brain-Derived Neurotrophic Factor N-Terminal Region” (ACS Chemical Neuroscience, 2022).

Assays:
[1] = test system: human TrkB; assay: TrkB phosphorylation, immunoprecipitation and western blot in SH-SY5Y cells transfected with hTrkB-EGFP; type: cell-based; conditions: 10 μM peptide, 10 min stimulation, normalized to ctrl; four replicas (peptides); one-way ANOVA with Bonferroni
Text: The possibility of mimicking the function of the full-length BDNF protein by using a linear peptide fragment encompassing the first 12 amino acids of the mature NT N-terminal was already postulated.[31] Here, we named this sequence as m-bdnf (Figure 1A) and performed a systematic comparison between the performance of the full-length human BDNF produced recombinantly in Escherichia coli([32]) and (i) m-bdnf, (ii) a dimeric peptide displaying two copies of the m-bdnf sequence covalently bound by a disulfide bridge (d-bdnf), and (iii) a monomeric peptide displaying the scrambled sequence of m-bdnf (s-bdnf). We first investigated the ability of these peptides to activate the TrkB receptor. To this purpose, we expressed a recombinant GFP fusion of human TrkB (Figure 1A) in SH-SY5Y cells. Then, cells were stimulated with BDNF or the related peptides. […] Then, the same cell-based assays for ERK phosphorylation were used to better elucidate the agonist properties of d-bdnf (Figure 1D). […] Specifically, an EC50 concentration of BDNF (1 nM) or of d-bdnf (10 μM) was used in combination with the increasing concentration of d-bdnf and BDNF, respectively, and the increase of ERK phosphorylation was assessed. […] Of note, we also performed a non-permeabilizing immunofluorescence analysis to quantify the membrane-bound BDNF in differentiated SH-SY5Y cells in the absence or presence of BDNF and d-bdnf (Figure S1C,D). […] The same increment was not observed upon treatment with the d-bdnf peptide, while instead we measured a slight (∼18%) decrease of the signal possibly due to the ability of the peptide to displace endogenous BDNF at the tested dose (10 μM). […]
Figure 1 Activation of the TrkB receptor by BDNF and its mimetic peptide ligands. […] (C) Scatter dot plot of ERK (left) and AKT (right) phosphorylation levels detected in differentiated SH-SY5Y cells, after stimulation with the same treatments as in (B). […] (G) Bar graph of mean ± SD ‘B-1’ values retrieved from N&B analysis for all the different conditions measured. […]

[2] = test system: AKT; assay: AKT phosphorylation, in cell ELISA in differentiated SH-SY5Y cells; type: cell-based, human; conditions: 10 min; 150 ng/mL BDNF or 10 μM peptide; three independent replicas in duplicate
Procedure: ERK and AKT phosphorylation were assessed in a 96-well plate format, performing an in cell ELISA assay as previously described 4. SH-SY5Y or HEK 293T cells were seeded at a density of 5.000 and 80.000 cell/well in 96 multiwell respectively, and the former were differentiated as describe above.
Cells were treated as described for TrkB phosphorylation or reported in the graphs, then washed with 0.1% Triton X-100 in PBS and fixed with 4% paraformaldehyde. Cells were then permeabilized (1% BSA; 0.1% Triton X-100 in PBS) for 1 hour, at the end, cells were incubated overnight at 4°C with anti-phospho ERK (1:500, sc-7383, Santa Cruz) or phosphor AKT (1:500, sc-16646-R-, Santa Cruz) antibodies. Next day, after the incubation with HRP-conjugated secondary antibody (anti-mouse # 31430, Invitrogen; anti-rabbit A0545, Sigma-Aldrich) the TMB substrate was added and the absorbance was read at 450 nm. Cells were incubated with only the secondary antibody to obtain the aspecific binding (Blanks). The absorbances were normalized to the relative number of cells in each well that was determined using Crystal Violet staining.
SH-SY5Y Immunofluorescence analysis
SH-SY5Y cells were seeded on a 24-well plate (5.000 cell/well) and differentiated with retinoic acid as describe above. Cells were treated for 60’ in an unsupplemented medium with BDNF (150 ng/ml) or d-bdnf (10 µM) alone or in combination. Samples were then fixed (4% PFA, 5% sucrose/PBS, 15 min) and subjected to a non-permeabilizing immunofluorescence assay. Briefly, cells were incubated with the blocking solution (5% BSA/PBS) for 1 h at room temperature and incubated overnight at 4 °C with chicken anti-BDNF (1:100, G164A Promega) antibody diluted in 2.5% BSA/PBS. The next morning samples were incubated with an Alexa568-conjugated anti-chicken secondary antibody (1:500, Thermofisher) in 2.5% BSA/PBS for 2h at room temperature. Coverslips were mounted with Fluoroshield-DAPI (Sigma-Aldrich) and imaged with a laser scanning confocal microscope (Nikon A1, Eclipse Ti), using a 60× oil objective (NA 1 .40) and pinhole set to 1 AU. Images were acquired […]
nm laser (emission window 545-645 nm). BDNF fluorescence intensity was analysed using FIJI ImageJ software. Briefly, the background intensity was subtracted from all red channel fields and an image threshold was applied to calculate the mean fluorescence intensity of the cells only. Results shown constitute the pool of fields stemming from two replicates.
ReNCell cell culture, differentiation and immunofluorescence analysis

Question: What does the source list for SRAGPHLRDVSE-NH2 [s-bdnf]?
Answer: TrkB phosphorylation (p-Tyr/TrkB band density) [1]: only d-bdnf was able to promote a significant TrkB phosphorylation; AKT phosphorylation increase vs unstimulated control [2]: only BDNF and d-bdnf were able to induce a significant ERK and AKT phosphorylation increase

Question: Which “TrkB phosphorylation (p-Tyr/TrkB band density)” value [1] does the source give for “HSDPARRGELSV-NH2 [m-bdnf, linear peptide fragment encompassing the first 12 amino acids of the mature NT N-terminal]” here?
Answer: only d-bdnf was able to promote a significant TrkB phosphorylation

Question: And the “AKT phosphorylation increase vs unstimulated control” value (“AKT phosphorylation increase” below) [2]?
Answer: only BDNF and d-bdnf were able to induce a significant ERK and AKT phosphorylation increase

Question: “HSDPARRGELSVC-C-VSLEGRRAPDSH (disulfide) [d-bdnf]” was tested. Which “TrkB phosphorylation (p-Tyr/TrkB band density)” value [1] did it give?
Answer: significant TrkB phosphorylation (p < 0.05)

Question: What about the “AKT phosphorylation increase” value [2] of the same molecule?
Answer: significant ERK and AKT phosphorylation increase

B1: brain-derived neurotrophic factor (protein, UniProt P23560 1-247, looked up)
chain: MTILFLTMVISYFGCMKAAPMKEANIRGQGGLAYPGVRTHGTLESVNGPKAGSRGLTSLADTFEHVIEELLDEDQKVRPNEENNKDADLYTSRVMLSSQVPLEPPLLFLLEEYKNYLDAANMSMRVRRHSDPARRGELSVCDSISEWVTAADKKTAVDMSGGTVTVLEKVPVSKGQLKQYFYETKCNPMGYTKEGCRGIDKRHWNSQCRTTQSYVRALTMDSKKRIGWRFIRIDTSCVCTLTIKRGR
modifications: full-length
notes: full-length human BDNF produced recombinantly in Escherichia coli
Question: With B1 as the molecule, how does the “AKT phosphorylation increase” value [2] read?
Answer: significant ERK and AKT phosphorylation increase
